PubChem BioAssay (NCI)
Several values for one entry are separate records, joined by “and”; a condition that tells them apart may be missing. Equal values may be shown once.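 96-well plates; 48 h exposure; 5 concentrations. Endpoints by linear interpolation between flanking doses. Not reached: highest tested concentration assigned. GI50 is the concentration that inhibits growth by half. At the TGI there is no net growth.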

Experiments:
Assay in all cases: inhibition of tumour cell growth, NCI panel, 48 h
COLO 205 colon = system: COLO 205 colon
HT29 colon = system: HT29 colon
IGROV1 ovarian = system: IGROV1 ovarian
KM20L2 colon = system: KM20L2 colon
LXFL 529 NSCLC = system: LXFL 529 NSCLC
SK-MEL-5 melanoma = system: SK-MEL-5 melanoma
SK-OV-3 ovarian = system: SK-OV-3 ovarian
SN12C renal = system: SN12C renal
A498 renal = system: A498 renal
T-47D breast = system: T-47D breast

| SMILES | TGI (COLO 205 colon) [µM] | TGI (HT29 colon) [µM] | TGI (IGROV1 ovarian) | TGI (KM20L2 colon) [µM] | TGI (LXFL 529 NSCLC) [µM] | TGI (SK-MEL-5 melanoma) | TGI (SK-OV-3 ovarian) | TGI (SN12C renal) [µM] | GI50 (A498 renal) | TGI (A498 renal) | GI50 (COLO 205 colon) | GI50 (HT29 colon) | GI50 (IGROV1 ovarian) | GI50 (SK-MEL-5 melanoma) | GI50 (SK-OV-3 ovarian) | GI50 (SN12C renal) | GI50 (T-47D breast) | TGI (T-47D breast) |
| --- | --- | --- | --- | --- | --- | --- | --- | --- | --- | --- | --- | --- | --- | --- | --- | --- | --- | --- |
| Cc1cc2c(ccc3c(C)cc(=O)oc32)o1 | > 100 | > 100 | > 100 µM | > 100 | > 100 | > 100 µM | > 100 µM | > 100 |  |  |  |  |  |  |  |  |  |  |
| COC(=O)N(C(=O)OC)C(C(=O)O)C(C)C (stereo unspecified) | > 100 | > 100 |  | > 100 | > 100 |  |  | > 100 |  |  |  |  |  |  |  |  |  |  |
| CO[C@H]1/C=C/O[C@@]2(C)Oc3c(C)c(O)c4c(c3C2=O)C(=O)C(/C=N/N(c2ccccc2)c2ccccc2)=C(NC(=O)/C(C)=C\C=C\[C@H](C)[C@H](O)[C@@H](C)[C@@H](O)[C@@H](C)[C@H](OC(C)=O)[C@@H]1C)C4=O | 3.46 | 3.84 | 4.23 µM |  |  | 3.02 µM | 3.28 µM | 3.33 | 1.43 µM | 2.84 µM | 1.75 µM | 1.93 µM | 2.13 µM | 1.64 µM | 1.81 µM | 1.82 µM | 1.84 µM | 3.85 µM |
| COc1ccc2c(CN3CCCCC3CO)cc3cc(OC)c(OC)cc3c2c1 (stereo unspecified) | 10.3 | 11.4 | 61.1 µM | 15.2 | 16.8 | 20.6 µM | 70.2 µM | 26.2 |  | 12.7 µM |  |  |  |  |  |  |  |  |
| C=C1C(=O)O[C@@H]2C[C@@H](C)[C@@H]3C=CC(=O)[C@@]3(C)[C@@H](OC(=O)CC(=O)O[C@H]3[C@@H]4C(=C)C(=O)O[C@@H]4C[C@@H](C)[C@@H]4C=CC(=O)[C@]43C)[C@H]12 | 0.0403 | 0.223 | 0.595 µM | 0.237 | 0.0343 | 0.215 µM | 0.785 µM | 0.0763 |  | 0.467 µM |  |  |  |  |  |  |  | 2.73 µM |
| CN(C)CC(C)(C)C(=O)/C=C/c1ccc(/C=C/C(=O)C(C)(C)CN(C)C)cc1 | 2.24 | 1.77 | 3.33 µM | 2.35 | 2.4 | 5.13 µM | 8.12 µM | 3.55 |  | 3.46 µM |  |  |  |  |  |  |  |  |
| c1cc(N(CCn2cccn2)CCn2cccn2)cc(N(CCn2cccn2)CCn2cccn2)c1 | > 100 |  |  | > 100 | > 100 | > 100 µM | > 100 µM | > 100 |  | > 100 µM |  |  |  |  |  |  |  |  |
| O=C(CP(=O)(O)O)NC(CC(=O)OCc1ccccc1)C(=O)OCc1ccccc1 (stereo unspecified) | > 100 | > 100 | > 100 µM |  |  | > 100 µM | > 100 µM | > 100 |  | > 100 µM |  |  |  |  |  |  |  | > 100 µM |
| COc1cc(/C=C2\C(=O)Nc3cc(C)c(O)cc32)cc(OC)c1OC | 22.8 | > 39.6 | 21.3 µM |  |  | 9.17 µM | 54.1 µM | 23.1 | 8.5 µM | 25.4 µM | 6.09 µM | 4.01 µM | 5.35 µM | 2.52 µM | 7.34 µM | 6.07 µM | 3.93 µM | 37.9 µM |
| O=c1nc(/C=C/c2ccccc2Cl)cc2n1CCN2CCO | > 100 | > 100 | > 100 µM |  | > 100 |  | > 100 µM | > 100 |  |  |  |  |  |  |  |  |  |  |
| FC(F)c1nc2ccccc2n1-c1nc(N2CCOCC2)nc(N2CCOCC2)n1 |  | > 100 | 0.369 µM and 0.593 µM |  |  | 2.11 µM and 2.37 µM | 1.03 µM and 1.94 µM | > 100 | 0.0303 µM and 0.0216 µM | 0.169 µM and 0.138 µM | 0.277 µM and 0.507 µM | 0.238 µM and 0.37 µM | 0.0621 µM and 0.165 µM | 0.453 µM and 0.338 µM | 0.175 µM and 0.27 µM | 0.247 µM and 0.332 µM | 0.0502 µM and 0.11 µM | 0.388 µM and 0.565 µM |
| CCOC(=O)c1sc(-c2ccc(OS(=O)(=O)c3ccc(Br)s3)c(C=O)c2)nc1C | 33.8 | 6.43 | 12.7 µM |  |  | 3.18 µM | 97.1 µM | 10.7 | 6.15 µM | 40.1 µM | 16.8 µM | 2.45 µM | 3.31 µM | 1.74 µM | 36.4 µM | 3.09 µM | 2.77 µM | 12.1 µM |
| O=C(CC(c1ccccc1)c1c(O)c2ccccc2oc1=O)c1ccccc1 (stereo unspecified) | > 100 | > 100 | > 100 µM |  |  | > 100 µM | > 100 µM | > 100 |  | 98.6 µM |  |  |  |  |  |  |  | > 100 µM |
| CCCC(=O)NC1=C(Cl)C(=O)c2ccccc2C1=O | 3.83 | 27.7 | 17.9 µM |  |  | 6.85 µM | 27.1 µM | 31 |  | 26.1 µM |  |  |  |  |  |  |  | 8.02 µM |
| CCCNNC(=O)/C=C/c1ccc(CNCCc2c(C)[nH]c3ccccc23)cc1 | 0.0428 | 1.53 | 0.216 µM |  |  | 0.122 µM | 0.482 µM | 3.76 | 0.00955 µM | 0.0244 µM | 0.0111 µM | 0.0123 µM | < 0.0339 µM | 0.0447 µM | 0.0357 µM | 0.0634 µM | 0.00852 µM | 0.0624 µM |
| Cc1ccc(C)c2c1C(O)(C#Cc1ccccc1)c1ccccc1C2(O)C#Cc1ccccc1 (stereo unspecified) | 6.48 | > 100 | 51.3 µM |  |  | 4.99 µM | > 100 µM | 89.2 | 2.2 µM | 14.9 µM | 2.01 µM | 2.96 µM | 3.05 µM | 1.63 µM | 3.44 µM | 3.04 µM | 2 µM | > 27.5 µM |
| CCCCCC[N+](C)(C)Cc1ccc(C[N+](C)(C)CCCCCC)cc1 |  | 16 | 5.38 µM | 34.4 | 15.4 | 28.5 µM | 33.4 µM | 12.7 |  | 38.9 µM |  |  |  |  |  |  |  |  |
